US20030195205A1, “PDE9 inhibitors for treating cardiovascular disorders” (Pfizer Inc., priority 2001, published 2003)
Read-outs that look alike come from different tables or passages of the source.

Biological target: T1, purified recombinant human PDE9 (Homo sapiens, UniProt O76083)
T1 construct: FLAG; made in house; host or cells: baculovirus/Sf9
Experiment: PDE9 enzyme inhibition scintillation proximity assay ([3H]cGMP hydrolysis)
Type: biochemical
Conditions: for inhibition at 1 µM: 1 μM compound, read-out: inhibition against PDE9 at a concentration of 1 μM
Experimental: The ability of the compounds of the invention to inhibit the PDE9 enzyme was determined using the following in vitro assay. The assay used purified recombinant human PDE9.
The assay uses [3H]cGMP which is hydrolysed by the PDE9 enzyme to the 5′-nucleotide [3H]GMP. The [3H]GMP binds to yttrium silicate scintillation proximity assay (SPA) beads, and detected by scintillation counting. Inhibition of activity is determined relative to the activity of uninhibited controls.
Phosphodiesterase Scintillation Proximity Assay (SPA) beads (Yttrium Silicate) were obtained from Amersham Biotech.
[^3H]Guanosine 3′,5′-Cyclic Phosphate ([^3H]-cGMP), Ammonium Salt was obtained from Amersham Biotech.
Buffer A was prepared containing Tris.HCl (20 mM), MgCl2.6H2O (5 mM) in water.
Buffer B was prepared containing Bovine Serum Albumin (2 mg/ml) (BSA) in Buffer A. It was prepared fresh and filter sterilised.
PDE9 enzyme solution was prepared in Buffer B (dilution factor determined such that no more than 30% breakdown of substrate occurred, but typically 1:35,000).
SPA beads were prepared by creating a suspension of beads in water (20 mg/ml) (28 ml per pack) containing 3 mM cold cGMP to effectively quench the reaction.
The compounds of the invention were diluted by a factor of 50 (i.e. 2 μl in 100 μl) when constituted in the final assay mix. Compound stock was prepared at 4 mM in DMSO. Dilute 1/8 with DMSO to give 500 μM solutions.
A 4 mM stock of standard inhibitor was prepared in DMSO. The standard inhibitor chosen was 5-(3-bromobenzyl)-3-n-propyl-1,6-dihydro-7H-pyrazolo[4,3-d]pyrimidin-7-one. The solution was further diluted with DMSO to give a 500 μM solution.
Following serial dilution, 2 μl of compound dilutions were dispensed in duplicate into microtitre plates with 2 μl DMSO added to controls as shown below.
To the microtitre plates containing solutions of compounds of the invention (2 μl) was added Buffer A (25 μl) to all wells. Buffer B (25 μl) was added to blank wells. Enzyme solution (25 μl) was added all wells except blanks. Substrate solution (50 μl) was added to each well. The plates were sealed and incubated for 15 minutes on a plate-shaker at 30 °C. SPA bead solution (50 μl) was added (containing excess cGMP) to each well to stop the reaction (Note: yttrium silicate beads are dense and require constant agitation whilst being added to each plate). The plates were shaken for 15 minutes to allow the beads to bind the GMP product and then allowed to settle for 30 minutes.
The plates were then analysed using a scintillation counter (such as the NXT TopCount)TM.
For each compound the percentage inhibition was calculated by the following equation:
(mean maximum−compound value)/(mean maximum−mean minimum)×100
IC50 values were determined from sigmoid dose response curves of enzyme activity vs. compound concentration.

T1 sequence (O76083 whole entry): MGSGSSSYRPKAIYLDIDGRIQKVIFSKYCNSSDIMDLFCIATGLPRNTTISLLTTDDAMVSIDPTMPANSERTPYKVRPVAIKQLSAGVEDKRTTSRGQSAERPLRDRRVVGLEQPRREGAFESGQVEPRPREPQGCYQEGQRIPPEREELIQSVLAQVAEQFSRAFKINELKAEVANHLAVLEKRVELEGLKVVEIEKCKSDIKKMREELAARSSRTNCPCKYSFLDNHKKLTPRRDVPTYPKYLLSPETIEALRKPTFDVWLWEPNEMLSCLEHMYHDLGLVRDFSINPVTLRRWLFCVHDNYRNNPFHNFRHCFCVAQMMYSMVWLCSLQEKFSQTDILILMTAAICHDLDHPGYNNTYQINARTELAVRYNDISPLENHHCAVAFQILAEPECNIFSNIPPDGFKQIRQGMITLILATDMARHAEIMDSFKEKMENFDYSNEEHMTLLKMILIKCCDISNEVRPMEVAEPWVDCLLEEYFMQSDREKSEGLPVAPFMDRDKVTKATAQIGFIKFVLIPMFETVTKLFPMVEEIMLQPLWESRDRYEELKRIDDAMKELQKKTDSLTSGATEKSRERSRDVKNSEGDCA

| Structure (SMILES) | inhibition at 1 µM [%] | IC50 (read-out: IC50 against PDE9) [nM] | IC50 (range the standard inhibitor was expected to fall in, read-out: IC50 of the standard) [nM] |
| --- | --- | --- | --- |
| O=c1[nH]c(Cc2ccccc2OCc2ccccc2)nc2c(C3CCCC3)n[nH]c12 [Compound 204, 3-cyclopentyl-5-(2-benzyloxybenzyl)-1,6-dihydro-pyrazolo[4,3-d]pyrimidin-7-one] | > 40 | 143 | – |
| CC(C)c1c2nc(Cc3cccc(Cl)c3)[nH]c(=O)c2nn1C [Compound 262, 5-(3-Chlorobenzyl)-3-isopropyl-2-methyl-2,6-dihydro-7H-pyrazolo[4,3-d]pyrimidin-7-one] | > 40 | – | – |
| CC(C)c1n[nH]c2c(=O)[nH]c(Cc3ccccc3OC(F)(F)F)nc12 [Compound 156, 3-isopropyl-5-(2-trifluoromethoxybenzyl)-1,6-dihydro-pyrazolo[4,3-d]pyrimidin-7-one] | > 40 | – | – |
| O=c1[nH]c(Cc2ccccc2OC(F)(F)F)nc2c(C3CCCC3)n[nH]c12 [Compound 256, 3-Cyclopentyl-5-(2-trifluoromethoxybenzyl)-1,6-dihydro-pyrazolo[4,3-d]pyrimidin-7one] | > 40 | – | – |
| O=c1[nH]c(Cc2ccccc2OC(F)(F)F)nc2c(-c3ccccc3)n[nH]c12 [Compound 263, 5-(2-Trifluoromethoxybenzyl)-3-phenyl-1,6-dihydro-7H-pyrazolo[4,3-d]pyrimidin-7-one] | > 40 | – | – |
| O=c1[nH]c(Cc2ccccc2OCc2ccccc2)nc2c(-c3cccnc3)n[nH]c12 [Compound 138, 3-(3-pyridinyl)-5-(2-benzyloxybenzyl)-1,6-dihydro-pyrazolo[4,3-d]pyrimidin-7-one] | > 40 | – | – |
| O=c1[nH]c(Cc2ccccc2OC(F)(F)F)nc2c(-c3cccnc3)n[nH]c12 [Compound 258] | – | 141 | – |
| CCCc1n[nH]c2c(=O)[nH]c(Cc3cccc(Br)c3)nc12 [standard, 5-(3-bromobenzyl)-3-n-propyl-1,6-dihydro-7H-pyrazolo[4,3-d]pyrimidin-7-one, reference compound] | – | – | 30 to 50 |
| CC(C)c1n[nH]c2c(=O)[nH]c(Cc3ccccc3Oc3ccccc3)nc12 [Compound 52, 3-isopropyl-5-(2-phenoxybenzyl)-1,6-dihydro-pyrazolo[4,3-d]pyrimidin-7-one] | > 40 | 126 | – |
